≈ marks a conversion by molar mass, not a printed value. Where “and” joins values, the source holds several entries; their conditions need not be identical. Equal values may be shown once. Read-outs that look alike come from different tables or passages of the source.
Columns and labels:
[1] = Kinetic solubility assay in PBS pH 7.4; type: physicochemical; conditions: kinetic from dmso stock, 1% DMSO; for solubility kinetic at 2 h: 25 °C, pH 7.4, aqueous buffer, PBS pH 7.4, 200 μM test conc, 2 h at 25 °C; for solubility at 2 h: aqueous buffer, PBS pH 7.4, 200 µM, 2 hours at 25°C
Method: The plate was incubated for 2 h at 25 °C. The precipitates on the incubation plate were removed by filtration and the filtrates were quantified by LC-MS/MS. Calibration curves were prepared for each compound by using 5–6 points. Samples were analyzed by UV–vis.

[2] = Cell viability / cytotoxicity assay (PrestoBlue, 72 h); type: cell-based; conditions: human; THP-1 cell line, 72 h, max 200 μM; read-out: CC50
Procedure, shortened: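 PMA-differentiated THP-1 cells (150 ng/mL PMA, 48 h; then 24 h in fresh medium) were exposed to compounds in serial dilution from 200 μM for 72 h at 37 °C, 5% CO2. Viability was read by PrestoBlue fluorescence (ex 560/em 590 nm) after 2 h.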

[3] = in vitro; conditions: for LogPe (cm/sec) n1: replicate n1, calculation section; for LogPe (cm/sec) n1 / LogPe (cm/sec) n2: PBS pH 7.4/7.4, 6h; for LogPe (cm/sec) n2: replicate n2, calculation section; for Pe (nm/sec) n=1 / % Recovery n=1: replicate n=1; for Pe (nm/sec) n=1 / Pe (nm/sec) n=2: 10µM (5% DMSO); for Pe (nm/sec) n=1 / Pe (nm/sec) n=2 / Remarks (PAMPA): LC-MS/MS
Method: Solutions of the compounds were prepared in duplicate by diluting the stock solutions (10 mM) in phosphate buffered saline (PBS) pH 7.4 at a final concentration of 10 μM (5% DMSO). The solutions diluted in PBS pH 7.4 were then added to the donor portion of the plate (300 μL/well), while in the acceptor portion PBS pH 7.4 (200 μL/well) was added. The two portions of the plate were then coupled, and the system was incubated for 6 h at room temperature. Samples of the initial donor solution (T0) were collected at the beginning (T0) and stored at 5 °C. The final concentrations of compounds in the donor, acceptor and T0 wells were quantified by LC-MS/MS.

[4] = test system: Leishmania braziliensis promastigotes; test: Leishmanicidal activity, promastigote growth (SYBR Green, 72 h); type: cell-based, Leishmania (V.) braziliensis (MHOM/BR/1975/M2904); conditions: Leishmania braziliensis, L. braziliensis promastigotes, max 200 μM
Procedure, shortened: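 Promastigotes seeded at 4 × 10^6 parasites/mL with compounds in decreasing concentrations up to 200 μM, 0.5% DMSO final, 72 h.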

[5] = target: T1, HsDHODH (Homo sapiens, UniProt Q02127); test: Selectivity assay: HsDHODH single-dose inhibition (DCIP reduction); type: biochemical
T1 construct: made in house
Procedure, shortened: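 Recombinant human DHODH at 20 nM final, purified by Ni-NTA affinity, tested at a single compound concentration in triplicate. DCIP reduction followed at 610 nm every 3 s over 60 s. Velocity expressed as % activity relative to enzyme control without compound.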

[6] = in vitro; conditions: microsomes; for microsomal CLint at 1 μM / remaining at 5 min, 1 μM: male, CD1, mouse; for remaining at 5 min, 1 μM / remaining at 10 min, 1 µM / remaining at 20 min, 1 µM / remaining at 0.5 h, 1 µM / remaining at 1 h, 1 µM: pH 7.4, % Remaining; for remaining at 5 min, 1 μM: T=5 min; for remaining at 10 min, 1 µM / remaining at 20 min, 1 µM / remaining at 0.5 h, 1 µM / remaining at 1 h, 1 µM: mouse; for remaining at 10 min, 1 µM: T=10 min; for remaining at 20 min, 1 µM: T=20 min; for remaining at 0.5 h, 1 µM: T=30 min, 30 min; for remaining at 1 h, 1 µM: T=60 min, 60 min
[7] = Mouse liver microsome stability in the absence of cofactors (NCF); conditions: 60 min, no cofactor (NCF); for remaining at 1 h, 1 µM: mouse, microsomes, pH 7.4, % Remaining, T=60 NCF; for Raw data: analyte peak area, T=60 NCF: mouse liver microsomes, raw LC-MS area
[8] = for Calculated T-half (min), Average / Calculated T-half (min), n=1 / Calculated T-half (min), n=2: mouse liver microsomes (CD1 male), test conc 1 µM; for Calculated T-half (min), Average: average of n=1 and n=2; for Modified T-half (min), Average / Remarks (mouse microsomal stability study): 0.4 mg/ml; for Modified T-half (min), Average: limited to T Half range 3.00 - […]; for Remarks (mouse microsomal stability study): NCF = no cofactor control; for mouse liver microsomes T-half: NADPH, 1 μM; for Raw data: analyte peak area, T=0: 0 min; for Raw data: analyte peak area, T=0 / Raw data: analyte peak area, T=5 / Raw data: analyte peak area, T=10 / Raw data: analyte peak area, T=20: raw LC-MS area; for Raw data: analyte peak area, T=5: 5 min; for Raw data: analyte peak area, T=10: 10 min; for Raw data: analyte peak area, T=20: 20 min
[9] = PAMPA, pH 7.4, % Recovery n=1, replicate n=1, 10µM, PBS pH 7.4/7.4, 6h at room temperature
[10] = PAMPA, pH 7.4, % Recovery n=2, replicate n=2, 10µM, PBS pH 7.4/7.4, 6h at room temperature
[11] = PAMPA, pH 7.4, Avg % Recovery, average of n=2, 10µM, PBS pH 7.4/7.4, 6h at room temperature
[12] = average of n=2, 10µM, PBS pH 7.4/7.4, 6h at room temperature
[13] = PBS pH 7.4/7.4, 6h at room temperature
[14] = 10µM, PBS pH 7.4/7.4, 6h at room temperature
[15] = replicate n=2, PBS pH 7.4/7.4, 6h at room temperature
[16] = read-out: Single dose (0h) % activity
[17] = read-out: Single dose (4h) % activity
[18] = n=1, mouse liver microsomes, 1 µM, n=1
[19] = n=2, mouse liver microsomes, 1 µM, n=2
[20] = pH 7.4, mouse liver microsomes CLint, app, mouse liver microsomes, NADPH, 1 μM
[21] = n=1, mouse liver microsomes, n=1
[22] = n=2, mouse liver microsomes, n=2
[23] = 0.4 mg/ml protein, replicate n=1
[24] = 0.4 mg/ml protein, replicate n=2
[25] = mouse liver microsomes, replicate 1 (left block)
[26] = mouse liver microsomes, replicate 2 (right block)

T1 sequence (Q02127 whole entry): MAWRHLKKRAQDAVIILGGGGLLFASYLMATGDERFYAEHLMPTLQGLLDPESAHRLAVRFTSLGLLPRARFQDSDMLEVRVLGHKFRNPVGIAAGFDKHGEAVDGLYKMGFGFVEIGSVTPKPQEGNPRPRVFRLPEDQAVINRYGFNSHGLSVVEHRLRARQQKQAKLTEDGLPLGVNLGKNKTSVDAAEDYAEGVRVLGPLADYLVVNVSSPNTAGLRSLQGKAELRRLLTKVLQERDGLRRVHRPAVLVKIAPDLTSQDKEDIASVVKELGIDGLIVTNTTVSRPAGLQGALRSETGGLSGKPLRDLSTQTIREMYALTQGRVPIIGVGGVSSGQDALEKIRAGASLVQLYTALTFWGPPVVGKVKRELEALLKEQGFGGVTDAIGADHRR

## COc1cc(C=C2C(=O)NC(=O)NC2=O)ccc1O [2c, 5-(4-Hydroxy-3-methoxybenzylidene)pyrimidine-2,4,6(1H,3H,5H)-trione]
[1]
  solubility kinetic at 2 h: 195 µM (≈ 51 µg/mL)
  solubility at 2 h: 51 µg/mL (≈ 194 µM)
[2]
  CC50 at 72 h: > 200 µM
[3]; [9]
  recovery at 6 h, 10 µM: 86.6%
[3]; [10]
  recovery at 6 h, 10 µM: 96%
[3]; [11]
  recovery at 6 h, 10 µM: 91.3%
[3]; PAMPA, pH 7.4, permeability, PBS pH 7.4, 10 μM, 6 h
  Papp: 0.84 ×10⁻⁶ cm/s
[3]; [12]
  Avg Log Pe (cm/sec): -6.08 cm/sec and -6.1 cm/sec
  Avg Pe: 0.843 ×10⁻⁶ cm/s and 0.84 ×10⁻⁶ cm/s
[3]; 10µM
  LogPe (cm/sec) n1: -6.16 cm/sec
  LogPe (cm/sec) n2: -6.00 cm/sec
[3]; [13]
  Pe (nm/sec) n=1: 6.94 nm/s and 6.9 nm/s
[3]; [14]
  % Recovery n=1: 86.6%
[3]; [15]
  Pe (nm/sec) n=2: 9.91 nm/s and 9.9 nm/s
[3]; replicate n=2, 10µM, PBS pH 7.4/7.4, 6h at room temperature
  % Recovery n=2: 96.0%
[4]
  EC50: > 200 µM
[5]; [16]
  activity at 100 µM: 80 ± 9%
[5]; [17]
  activity at 100 µM: 83 ± 8%
[6]; pH 7.4
  microsomal CLint at 1 μM: 283 µL/min/mg
[6]; [18]
  remaining at 5 min, 1 μM: 38.7%
  remaining at 10 min, 1 µM: 17.1%
  remaining at 20 min, 1 µM: 9.8%
  remaining at 0.5 h, 1 µM: 6.6%
  remaining at 1 h, 1 µM: 12.9%
[6]; [19]
  remaining at 5 min, 1 μM: 50.5%
  remaining at 10 min, 1 µM: 17.8%
  remaining at 20 min, 1 µM: 9.5%
  remaining at 0.5 h, 1 µM: 9.5%
  remaining at 1 h, 1 µM: 13.3%
[6]; pH 7.4, Calculated CLint, app (µl/min/mg), Average, mouse liver microsomes, 0.4 mg/ml protein, 1 µM
  microsomal CLint at 1 μM: 290 µL/min/mg
[6]; pH 7.4, Calculated CLint, app (µl/min/mg), n=1, mouse liver microsomes, 0.4 mg/ml protein, 1 µM, replicate n=1
  microsomal CLint at 1 μM: 283 µL/min/mg
[6]; pH 7.4, Calculated CLint, app (µl/min/mg), n=2, mouse liver microsomes, 0.4 mg/ml protein, 1 µM, replicate n=2
  microsomal CLint at 1 μM: 298 µL/min/mg
[6]; [20]
  microsomal CLint at 1 μM: 290 µL/min/mg
[7]; [21]
  remaining at 1 h, 1 µM: 52.4%
[7]; [22]
  remaining at 1 h, 1 µM: 51.5%
[8]; 0.4 mg/ml protein
  Calculated T-half (min), Average: 6.0 min
[8]; [23]
  Calculated T-half (min), n=1: 6.12 min and 6.1 min
[8]; [24]
  Calculated T-half (min), n=2: 5.82 min and 5.8 min
[8]; mouse liver microsomes, 0.4 mg/ml protein, 1 µM, replicate n=1
  Calculated CLint, app (µl/min/mg), n=1: 283.1 µL/min/mg
[8]; mouse liver microsomes, 0.4 mg/ml protein, 1 µM, replicate n=2
  Calculated CLint, app (µl/min/mg), n=2: 297.8 µL/min/mg
[8]; mouse liver microsomes, 1 µM
  Modified T-half (min), Average: 6.0 min
  Remarks (mouse microsomal stability study): Low NCF
[8]; mouse liver microsomes
  mouse liver microsomes T-half: 6.0 min and 6 min

## O=C1NC(=O)C(=Cc2ccc(O)c([N+](=O)[O-])c2)C(=O)N1 [2d, 5-(4-Hydroxy-3-nitrobenzylidene)pyrimidine-2,4,6(1H,3H,5H)-trione]
[1]
  solubility kinetic at 2 h: 190 µM (≈ 52.7 µg/mL)
  solubility at 2 h: 52.7 µg/mL (≈ 190 µM)
[2]
  CC50 at 72 h: > 200 µM
[3]; [14]
  Remarks (PAMPA): Poor detection sensitivity/Compound might be unstable in assay matrix
[4]
  EC50: 152 ± 28 µM
[5]; [16]
  activity at 100 µM: 90 ± 10%
[5]; [17]
  activity at 100 µM: 92 ± 9%
[8]; mouse liver microsomes, 1 µM
  Remarks (mouse microsomal stability study): Poor detection sensitivity/Compound might be unstable in assay matrix

## O=C1NC(=O)C(=Cc2ccc(N3CCOCC3)cc2[N+](=O)[O-])C(=O)N1 [2e, 5-(4-Morpholino-2-nitrobenzylidene)pyrimidine-2,4,6(1H,3H,5H)-trione]
[1]
  solubility kinetic at 2 h: 178 µM (≈ 61.8 µg/mL)
  solubility at 2 h: 53.4 µg/mL (≈ 154 µM)
[2]
  CC50 at 72 h: > 200 µM
[3]; [14]
  Remarks (PAMPA): No peak detected in acceptor samples
  % Recovery n=1: 95.05%
[3]; [9]
  recovery at 6 h, 10 µM: 95.1%
[3]; [10]
  recovery at 6 h, 10 µM: 101%
[3]; [11]
  recovery at 6 h, 10 µM: 98.2%
[3]; [12]
  Avg Log Pe (cm/sec): -9.4 cm/sec and -9.35 cm/sec
  Avg Pe: 0.000444 ×10⁻⁶ cm/s
[3]; 10µM
  LogPe (cm/sec) n1: -9.34 cm/sec
  LogPe (cm/sec) n2: -9.37 cm/sec
[3]; [13]
  Pe (nm/sec) n=1: 0.00461 nm/s
[3]; [15]
  Pe (nm/sec) n=2: 0.00426 nm/s
[4]
  EC50: 17 ± 11 µM
[5]; [16]
  activity at 100 µM: 80 ± 9%
[5]; [17]
  activity at 100 µM: 86 ± 8%
[6]; pH 7.4
  microsomal CLint at 1 μM: < 14.4 µL/min/mg
[6]; [18]
  remaining at 5 min, 1 μM: 91.8%
  remaining at 10 min, 1 µM: 96%
  remaining at 20 min, 1 µM: 83.8%
  remaining at 0.5 h, 1 µM: 85%
  remaining at 1 h, 1 µM: 87.6%
[6]; [19]
  remaining at 5 min, 1 μM: 103%
  remaining at 10 min, 1 µM: 109%
  remaining at 20 min, 1 µM: 99.7%
  remaining at 0.5 h, 1 µM: 91.7%
  remaining at 1 h, 1 µM: 88.8%
[6]; [20]
  microsomal CLint at 1 μM: < 14.4 µL/min/mg
[7]; replicate 1 (left block)
  Raw data: analyte peak area, T=60 NCF: 19133
[7]; replicate 2 (right block)
  Raw data: analyte peak area, T=60 NCF: 18454
[7]; [21]
  remaining at 1 h, 1 µM: 100%
[7]; [22]
  remaining at 1 h, 1 µM: 93.1%
[8]; 0.4 mg/ml protein
  Calculated T-half (min), Average: 298.4 min
[8]; [23]
  Calculated T-half (min), n=1: 354.59 min and 354.6 min
[8]; [24]
  Calculated T-half (min), n=2: 242.28 min and 242.3 min
[8]; [25]
  Raw data: analyte peak area, T=0: 18699
  Raw data: analyte peak area, T=5: 18869
  Raw data: analyte peak area, T=10: 18566
  Raw data: analyte peak area, T=20: 17411
[8]; [26]
  Raw data: analyte peak area, T=0: 19500
  Raw data: analyte peak area, T=5: 20171
  Raw data: analyte peak area, T=10: 21617
  Raw data: analyte peak area, T=20: 21071
[8]; mouse liver microsomes, 1 µM
  Modified T-half (min), Average: >120.0 min
[8]; mouse liver microsomes
  mouse liver microsomes T-half: >120.0 min

— article PMC12481576, “Barbituric Acid Derivatives as Covalent Inhibitors of Leishmania braziliensis Dihydroorotate Dehydrogenase” (Journal of Medicinal Chemistry, 2025)
